Results as given in patent publication US20250249045A1, “COMPOSITIONS AND METHODS RELATED TO EXTRACELLULAR VESICLE THERAPEUTIC DELIVERY PLATFORM” (priority 2022, published 2025).

Key:
SARS-CoV-2 pseudovirus [1] = assay type: cell-based
SARS-CoV-2 pseudovirus [2] = system: SARS-CoV-2 pseudovirus; set-up: species or system mice; conditions: mouse

rhACE2
entry of SARS-CoV-2 pseudovirus into ACE2-expressing A549 cells (SARS-CoV-2 pseudovirus [1]): efficiently blocked the infection | pseudovirus neutralization by flow cytometry (SARS-CoV-2 pseudovirus [1]): efficiently neutralized | pseudovirus signals in lung, ex-vivo fluorescence imaging (SARS-CoV-2 pseudovirus [2]): failed to block SARS-CoV-2 pseudovirus entry
